According to BindingDB's records for doi:10.1021/jm300317k (University of Manchester, 2012):

Molecular target: Glucose-6-phosphate 1-dehydrogenase (Homo sapiens, UniProt P11413)
Test: Inhibition of human recombinant N-terminal His tagged G6PD expressed in Escherichia coli JM109 (DE3) cells assessed as production of NADPH after 30 mins by Amplite fluorimetric assay

Chain of Glucose-6-phosphate 1-dehydrogenase (P11413 whole entry): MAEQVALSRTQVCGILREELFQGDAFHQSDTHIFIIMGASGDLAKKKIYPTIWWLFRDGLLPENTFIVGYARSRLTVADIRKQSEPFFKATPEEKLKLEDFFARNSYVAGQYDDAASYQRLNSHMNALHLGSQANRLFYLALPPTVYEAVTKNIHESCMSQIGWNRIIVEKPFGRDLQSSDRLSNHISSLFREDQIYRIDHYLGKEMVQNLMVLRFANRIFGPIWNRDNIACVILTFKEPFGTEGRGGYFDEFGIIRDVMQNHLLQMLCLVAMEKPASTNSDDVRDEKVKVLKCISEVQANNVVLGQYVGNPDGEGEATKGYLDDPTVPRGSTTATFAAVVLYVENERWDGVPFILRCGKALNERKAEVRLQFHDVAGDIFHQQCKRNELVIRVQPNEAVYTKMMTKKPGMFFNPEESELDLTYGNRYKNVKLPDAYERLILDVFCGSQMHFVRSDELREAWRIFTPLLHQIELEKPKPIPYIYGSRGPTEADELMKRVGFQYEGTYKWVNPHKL

Row | Compound | IC50 [µM]
1 | CC(N=O)[C@H]1CC[C@H]2[C@@H]3CC[C@H]4C[C@@H](O)CC[C@]4(C)[C@H]3CC[C@]12C (some centres not stated) | > 200
2 | C[C@]12CC[C@H](O)C[C@@H]1CC[C@@H]1[C@@H]2CC[C@]2(C)C(N=O)CC[C@@H]12 (some centres not stated) | > 200
